Among the test systems are A549; HCT-15; HL-60; LOX IMVI; MOLT-4; Malme-3M; OVCAR-4; OVCAR-5; OVCAR-8; RXF 393; SF-295; SF-539; SK-MEL-2; SNB-75; T47D; TK-10; U-251; UACC-257; HOP-62; NCI-H23.
Assay in all cases: inhibition of tumour cell growth, NCI panel, 48 h

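Where inhibition never reached the appropriate level, the endpoint shown equals the highest concentration tested. Otherwise, values were interpolated linearly from a five-concentration, 48-hour dose response in 96-well plates. Abbreviation: GI50, concentration required for 50% inhibition of growth.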 Active and inactive are the calls of the source. Cut-off read from the data, not from the text of the source: active = GI50 up to about 1.1 µM and inactive = higher.

For `Cn1c2ccc([N+](=O)[O-])cc2c(=O)c2c(O)cc(O)cc21`, the GI50 with A549 is 29.4 µM (inactive); in the assay on HCT-15, 60.3 µM; in the assay with HL-60 it was > 100 µM (inactive); in the assay on LOX IMVI, 37.1 µM (inactive); with MOLT-4, 45.2 µM (inactive); with Malme-3M, 18.6 µM (inactive). Moreover, the GI50 is 31.2 µM (inactive) in the assay with OVCAR-4; > 100 µM (inactive) in the assay on OVCAR-5; 13.2 µM (inactive) in the assay with OVCAR-8; 25.7 µM (inactive) with RXF 393; 15.3 µM (inactive) in the assay with SF-295; 24.3 µM (inactive) in the assay on SF-539. Further, the GI50 was > 10 µM (inactive) in the assay on SK-MEL-2; 4.15 µM (inactive) in the assay with SNB-75; 45.2 µM (inactive) with T47D; 66.2 µM (inactive) with TK-10; 15.7 µM (inactive) with U-251; > 100 µM (inactive) in the assay on UACC-257.
For the molecule `Cc1cccc(NC(=O)CCl)c1`, the GI50 with A549 was > 10 µM (inactive); with HCT-15 it was more than 10 µM; in the assay on HL-60, 3.56 µM (inactive); with HOP-62, > 10 µM (inactive); in the assay on LOX IMVI, 6.19 µM (inactive); in the assay on MOLT-4, > 10 µM (inactive). The GI50 in the assay with Malme-3M was 3.93 µM (inactive); in the assay on NCI-H23, 4.26 µM (inactive); in the assay on OVCAR-4, 3.29 µM (inactive); with OVCAR-5 it was > 10 µM (inactive); in the assay on OVCAR-8, 9.53 µM (inactive); in the assay with RXF 393, 8.49 µM (inactive). The GI50 in the assay on SF-295 was > 10 µM (inactive); with SF-539, 9.31 µM (inactive); in the assay on SK-MEL-2, > 10 µM (inactive); in the assay with T47D, > 10 µM (inactive); in the assay on TK-10 it was > 10 µM (inactive); in the assay on U-251, 2.24 µM (inactive). For the same molecule, the GI50 in the assay with UACC-257 was > 10 µM (inactive).
Consider `c1ccc(COc2nc3cc(C45CC6CC(CC(C6)C4)C5)ccc3[nH]2)cc1`, for which the GI50 in the assay with A549 was 16.5 µM (inactive); with HCT-15, 3.72 µM; in the assay on HL-60, 9.38 µM (inactive); with HOP-62 it was 24.4 µM (inactive); in the assay on LOX IMVI, 12.1 µM (inactive); in the assay on MOLT-4, 3.35 µM (inactive). For the same molecule, the GI50 was 9.16 µM (inactive) in the assay on Malme-3M; 6.3 µM (inactive) in the assay on NCI-H23; > 31.3 µM (inactive) in the assay on OVCAR-4; 41 µM (inactive) with OVCAR-5; 18 µM (inactive) with OVCAR-8; 11.3 µM (inactive) in the assay with RXF 393. In addition, the GI50 in the assay with SF-295 is 6.7 µM (inactive); with SK-MEL-2, 11.2 µM (inactive); with SNB-75, 29.6 µM (inactive); in the assay on T47D, 2.83 µM (inactive); in the assay with TK-10, 4.65 µM (inactive); with U-251 it was 8.87 µM (inactive). Moreover, in the assay with UACC-257, the GI50 was 2.92 µM (inactive).
For `CCCCCCc1cc(C=O)sc1-c1ccc(-c2sc(-c3ccc(-c4ccc(-c5cc(CCCCCC)c(-c6ccc(-c7sc(C=O)cc7CCCCCC)s6)s5)s4)s3)cc2CCCCCC)s1`, the GI50 with A549 was > 100 µM (inactive); in the assay on HCT-15 it was more than 100 µM; in the assay with HL-60, > 100 µM (inactive); with HOP-62, > 100 µM (inactive); with LOX IMVI, > 100 µM (inactive); in the assay with MOLT-4 it was > 100 µM (inactive). Further, the GI50 with Malme-3M, with NCI-H23, with OVCAR-4, in the assay on OVCAR-5, in the assay on OVCAR-8 and in the assay on RXF 393 was > 100 µM (inactive) throughout. Besides, the GI50 in the assay with SF-295, in the assay with SF-539, with SK-MEL-2, in the assay on T47D, with TK-10 and with U-251 was > 100 µM (inactive) throughout. Further, in the assay on UACC-257, the GI50 was > 100 µM (inactive).
For `CCc1n[nH]c(=O)n1N1C(=O)C2CCCCC2C1=O` (stereo unspecified), the GI50 is > 100 µM (inactive) in the assay with A549; more than 100 µM with HCT-15; > 100 µM (inactive) in the assay with HL-60; > 100 µM (inactive) with HOP-62; > 100 µM (inactive) in the assay on LOX IMVI; > 100 µM (inactive) with MOLT-4. Besides, the GI50 in the assay with Malme-3M, in the assay with NCI-H23, in the assay on OVCAR-4, in the assay on OVCAR-5, with OVCAR-8 and in the assay on RXF 393 was > 100 µM (inactive) throughout. The GI50 with SF-295, in the assay on SK-MEL-2, with SNB-75, in the assay with T47D, in the assay on TK-10 and in the assay on U-251 was > 100 µM (inactive) each time. For the same molecule, the GI50 in the assay on UACC-257 was > 100 µM (inactive).
With `CC1=CCC(C)=Nc2nc3ccccc3n21`, the GI50 was > 100 µM (inactive) in the assay on A549; more than 100 µM with HCT-15; > 100 µM (inactive) with HL-60; > 100 µM (inactive) in the assay with HOP-62; > 100 µM (inactive) with LOX IMVI; > 100 µM (inactive) in the assay on MOLT-4. Further, the GI50 with Malme-3M, in the assay on NCI-H23, in the assay on OVCAR-4, with OVCAR-5, in the assay with OVCAR-8 and in the assay with RXF 393 was > 100 µM (inactive) each time. Moreover, the GI50 in the assay on SF-295, in the assay with SF-539, with SK-MEL-2, with T47D, in the assay on TK-10 and with U-251 was > 100 µM (inactive) throughout. For the same molecule, the GI50 in the assay with UACC-257 was > 100 µM (inactive).
With `CC(C)(C)c1cc(-c2cc(C(C)(C)C)n(-c3ccccc3)n2)nn1-c1ccccc1`, the GI50 is > 100 µM (inactive) in the assay with A549; more than 100 µM in the assay with HCT-15; > 100 µM (inactive) in the assay on HL-60; > 100 µM (inactive) in the assay on HOP-62; 6.43 µM (inactive) in the assay with LOX IMVI; > 100 µM (inactive) in the assay with MOLT-4. Also, the GI50 with NCI-H23, in the assay with OVCAR-4, with OVCAR-5, in the assay on OVCAR-8, in the assay with RXF 393 and with SF-295 was > 100 µM (inactive) in each case. In addition, the GI50 in the assay with SF-539 was > 100 µM (inactive); in the assay with SK-MEL-2 it was > 100 µM (inactive); in the assay on SNB-75, > 100 µM (inactive); in the assay on T47D it was 59.2 µM (inactive); with TK-10 it was > 100 µM (inactive); with U-251, > 100 µM (inactive). The GI50 with UACC-257 is > 100 µM (inactive).
In the case of `O=C(/N=C1/OC(CN2CCOCC2)CN1C(=O)Nc1ccccc1)Nc1ccccc1` (stereo unspecified), the GI50 with A549 was > 100 µM (inactive); in the assay with HCT-15 it was more than 100 µM; in the assay on HL-60 it was > 100 µM (inactive); with HOP-62 it was > 100 µM (inactive); in the assay with LOX IMVI it was > 100 µM (inactive); in the assay with MOLT-4, > 100 µM (inactive). Also, the GI50 in the assay on Malme-3M, in the assay with NCI-H23, in the assay with OVCAR-4, in the assay on OVCAR-5, in the assay with OVCAR-8 and in the assay with RXF 393 was > 100 µM (inactive) each time. In addition, the GI50 in the assay on SF-295 is > 100 µM (inactive); with SK-MEL-2, > 100 µM (inactive); in the assay with SNB-75, 54.7 µM (inactive); with T47D it was 21.4 µM (inactive); with TK-10, > 100 µM (inactive); in the assay with U-251, > 100 µM (inactive). In addition, the GI50 in the assay on UACC-257 is > 100 µM (inactive).
With `O=C(O)c1cccc(NC(C(=O)c2ccccc2)c2ccccc2)c1` (stereo unspecified), the GI50 is > 100 µM (inactive) in the assay on A549; more than 100 µM in the assay with HCT-15; > 100 µM (inactive) in the assay on HL-60; > 100 µM (inactive) with HOP-62; > 100 µM (inactive) with LOX IMVI; > 100 µM (inactive) in the assay with MOLT-4. The GI50 in the assay on Malme-3M, in the assay with NCI-H23, in the assay on OVCAR-5, in the assay with OVCAR-8, in the assay with RXF 393 and with SF-295 was > 100 µM (inactive) throughout. Moreover, the GI50 with SF-539, in the assay on SK-MEL-2, with T47D, in the assay on TK-10 and with U-251 was > 100 µM (inactive) each time.
In the case of `CCCCCCCCCCCCCCCCCCNc1nc(=O)n(C2CC(OP(=O)(O)OCC3OC(n4cc(F)c(=O)[nH]c4=O)CC3O)C(CO)O2)cc1F` (stereo unspecified), the GI50 in the assay with A549 is 7.24 µM (inactive); in the assay on HCT-15 it was 37.5 µM; in the assay on HL-60, 5.18 µM (inactive); in the assay on HOP-62, 15.2 µM (inactive); in the assay with LOX IMVI, 26.1 µM (inactive); with MOLT-4 it was 14.7 µM (inactive). Also, the GI50 with NCI-H23 is 38.8 µM (inactive); in the assay with OVCAR-4, > 100 µM (inactive); with OVCAR-5 it was 54.2 µM (inactive); with OVCAR-8, 17.5 µM (inactive); in the assay on RXF 393 it was 11.4 µM (inactive); in the assay on SF-295 it was 13.5 µM (inactive). In addition, the GI50 in the assay on SF-539 is 6.67 µM (inactive); in the assay on SK-MEL-2 it was 27.5 µM (inactive); in the assay on SNB-75, 36.9 µM (inactive); in the assay with T47D, 31.2 µM (inactive); with TK-10, 70.5 µM (inactive); in the assay with U-251, 17.5 µM (inactive). In addition, in the assay on UACC-257, the GI50 is 61 µM (inactive).
For `CC(=O)/N=C1\NC(=O)/C(=C/c2ccc(/C=C3/C(=O)N/C(=N\C(C)=O)N3C)cc2)N1C`, the GI50 is > 100 µM (inactive) in the assay on A549; more than 100 µM in the assay with HCT-15; 47.3 µM (inactive) in the assay on HL-60; > 100 µM (inactive) with HOP-62; > 100 µM (inactive) in the assay with LOX IMVI; > 100 µM (inactive) in the assay with MOLT-4. The GI50 in the assay on NCI-H23, with OVCAR-4, in the assay with OVCAR-5, with OVCAR-8, in the assay with RXF 393 and with SF-295 was > 100 µM (inactive) in each case. The GI50 in the assay on SF-539, in the assay with SK-MEL-2, in the assay with SNB-75, in the assay with T47D, with TK-10 and with U-251 was > 100 µM (inactive) in each case. Further, in the assay on UACC-257, the GI50 is > 100 µM (inactive).

The values above are taken from ChEMBL document CHEMBL1201862, “PubChem BioAssay data set” (2004).
